Laboratory results published in patent US20020188122A1, “Novel compounds” (SmithKline Beecham Corporation, priority 1993, published 2002).

Tests used:
[1] = test system: human PGHS-2 protein expression; experiment: Prostoglandin endoperoxide synthase-2 (PGHS-2) assay, protein expression in LPS stimulated human monocytes; format: cell-based
Procedure: The followiong assay describes a method for determining the inhibitory effects of compounds of Formula (I) on human PGHS-2 protein expression in LPS stimulated human monocytes
Human peripheal blood monocytes were isolated from buffy coats by centrifugation through Ficoll and Percoll gradients. Cells were seeded at 2×10^6/well in 24 well plates and allowed to adhere for 1 hour in RPMI supplemented with 1% human AB serum, 20 mM L-glutamine, Penicillin-Streptomycin and 10 mM HEPES. Compounds were added at various concentrations and incubated at 37° C. for 10 minutes. LPS was added at 50 ng/well (to induce enzyme expression) and incubated overnight at 37° C. The supernatant was removed and cells washed once in cold PBS. The cells were lysed in 100 μl of cold lysis buffer(50 mM Tris/HCl pH 7.5, 150 mM NaCl, 1% NP40, 0.5% sodium deoxycholate, 0.1% SDS, 300 ug/ml DNAse, 0.1% TRITON X-100, 1 mM PMSF, 1 mM leupeptin, 1 mM pepstatin). The lysate was centrifuged (10,000× g for 10 min. at 4° C.) to remove debris and the soluble fraction was subjected to SDS PAGE. analysis (12% gel). Protein separated on the gel were transferred onto nitrocellulose membrane by electrophoretic means for 2 hours at 60 volts. The membrane was pretreated for one hour in PBS/0.1% Tween 20 with 5% non-fat dry milk. […]

SMILES	melting point [°C]	other results
C[C@@H]1C[C@H]2[C@@H]3CCC4=CC(=O)C=C[C@]4(C)[C@@]3(F)[C@@H](O)C[C@]2(C)[C@@]1(O)C(=O)CO [Dexamethasone]	–	inhibition of LPS induced PGHS-2 protein expression ([1]; rank order potency similar to that for inhibiting cytokine production): active
Nc1nccc(-c2c(-c3ccc(F)cc3)ncn2C2CCSCC2)n1 [Example 91, 5-(2-Amino-4-pyrimidinyl)-4-(4-fluorophenyl)-1-(tetrahydro-4-thiopyranyl)imidazole]	228 to 230	–
CNc1nccc(-c2c(-c3ccc(F)cc3)ncn2CCC#N)n1 [Example 93, 5-(2-Methylamino-4-pyrimidinyl)-4-(4-fluorophenyl)-1-(2-cyanoethyl)imidazole]	193 to 194	–
CC(Cc1ccc(O)c(O)c1)C(C)Cc1ccc(O)c(O)c1 (stereo not shown) [NDGA]	–	inhibition of LPS induced PGHS-2 protein expression ([1]; up to 10 uM): inactive
